Assay results as given in PMC5006645 (EBioMedicine, 2016).

Tests used:
[1] = tested on: trabecular and cortical bone of lean C57BL/6 mice; test: Lean mice experiment: bone mCT and histomorphometry; conditions: for mineral apposition rate (MAR) and bone formation rate (BFR): proximal tibia
[2] = Glucose tolerance test in DIO mice; assay type: in vivo, C57BL/6 mice; conditions: DIO animals, 25 mg/kg/d, 4 weeks
marrow MSCs = test: Marrow MSC cultures: adipocyte markers and CFU-OB osteoblast differentiation; assay type: cell-based; conditions: marrow MSC culture, 6 days; 10 μM SR10171 or 1 μM rosiglitazone
PPARγ = assay type: cell-based; conditions: AD2 cells; 1 μM rosiglitazone or 5 μM SR10171 1 h, then TNF-α 50 ng/ml 1 h
[3] = tested on: TCF/LIF/β-catenin complex; test: Top-Flash luciferase reporter in U33/γ2 cells; assay type: cell-based; conditions: 72 h
[4] = tested on: non-adherent bone marrow cells; test: Osteoclastogenesis assay from non-adherent bone marrow cells; assay type: cell-based; conditions: ex vivo; 10 μM SR10171 or 1 μM rosiglitazone; M-CSF and RANKL
[5] = tested on: trabecular and cortical bone of lean C57BL/6 mice; conditions: 15 mg/kg/d, 8 weeks; previously established, ref not given; cited from earlier work
[6] = Plasma levels at the end of experiments; assay type: in vivo, C57BL/6 mice; conditions: for concentration at 4 days: C57BL/6, mouse, plasma, 5 mg/kg/d
PPARα = molecular target: T1, PPARα (Homo sapiens, UniProt Q07869)
T1 sequence (Q07869 200-468 limits assumed): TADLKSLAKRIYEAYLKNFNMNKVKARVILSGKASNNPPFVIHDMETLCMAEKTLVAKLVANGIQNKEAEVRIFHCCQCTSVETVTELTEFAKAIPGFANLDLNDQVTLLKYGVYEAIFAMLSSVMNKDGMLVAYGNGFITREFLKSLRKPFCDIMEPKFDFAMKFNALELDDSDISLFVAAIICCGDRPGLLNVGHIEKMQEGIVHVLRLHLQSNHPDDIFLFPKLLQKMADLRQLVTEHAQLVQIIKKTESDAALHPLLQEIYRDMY

cortical bone = test: Cortical tissue mineral density; assay type: in vivo, C57BL/6 mice; conditions: mouse model not stated; control 954.6 ± 17.6
S273pPPARγ = test: Inhibition of S273 phosphorylation of PPARγ; assay type: biochemical
[7] = tested on: osteocytes from femora cortical bone; test: Gene expression in osteocytes freshly isolated from femora of treated animals; assay type: in vivo, C57BL/6 mice
[8] = Body weight of treated mice; assay type: in vivo, C57BL/6 mice
[9] = tested on: bone and marrow fat of DIO C57BL/6 mice; assay type: in vivo
[10] = midshaft tibia, calcein labeling

## CN(CCOc1ccc(CC2SC(=O)NC2=O)cc1)c1ccccn1 (racemic) [Rosiglitazone, (RS)-5-[4-(2-[methyl(pyridin-2-yl)amino]ethoxy)benzyl]thiazolidine-2,4-dione, reference compound]
[1]; 15 mg/kg/d, 8 weeks
  increase of adipocyte number: 5 fold
  trabecular bone mass: decreased
  mineral apposition rate (MAR) and bone formation rate (BFR): attenuated
[2]
  glucose tolerance: normalized
Marrow MSCs
  basal expression of Fabp4 and Adipoq: increased
PPARγ
  phosphorylation of S112 of PPARγ: alters
  phosphorylation of S273 of PPARγ: block
[3]
  β-catenin transcriptional activity (Top-Flash): decreased
[4]
  number of multi-nucleated TRAP-positive osteoclast-like cells: increased
[5]
  decrease of bone mass: 20%
[6]
  concentration at 4 days: 1670 nM
PPARα
  EC50 PPARα GAL-4: No activity
Cortical bone
  cortical tissue mineral density (TMD): 954.5 ± 17.9 mg HA/cm^3
S273pPPARγ; 20 μM
  % inhibition S273pPPARγ (20 μM): 100%
[7]
  Dkk1 expression in osteocytes of treated animals: increased
  Sost expression in osteocytes of treated animals: unaffected

## Cc1c(C)n(Cc2cccc(OC(C)(C)C(=O)O)c2)c2ccc(C(=O)N[C@@H](C)c3ccc(C(C)(C)C)cc3)cc12 [SR10171, (S)-2-(3-((5-((1-(4-(tert-butyl)phenyl)ethyl)carbamoyl)-2,3-dimethyl-1H-indol-1-yl)methyl)phenoxy)-2-methylpropanoic acid]
[1]; 15 mg/kg/d, 8 weeks
  Trabecular bone mass in proximal tibia, increase vs non-treated controls: 26%
  decrease of number of marrow adipocytes: 50%
  mineral apposition rate (MAR) and bone formation rate (BFR): increase
[1]; [10]
  periosteal labeling, times larger than control: 1.5 fold
[2]
  glucose tolerance: normalized
Marrow MSCs
  basal expression of Fabp4 and Adipoq: decreased
[8]; DIO mice maintained on HFD, 25 mg/kg/d, 4 weeks
  body weight: decreased
[8]; lean animals, 15 mg/kg/d, 8 weeks
  body weight: no impact
[4]
  number of multi-nucleated TRAP-positive osteoclast-like cells: increased
[6]
  concentration at 4 days: 4010 nM
[6]; animals treated for 4 days
  retention levels in plasma, higher than rosiglitazone: 2.5 fold
Cortical bone
  cortical tissue mineral density (TMD): 978.6 ± 10.4 mg HA/cm^3
S273pPPARγ; relative to rosiglitazone
  S273 phosphorylation blocking activity, lower than rosiglitazone: 50%
[7]
  Dkk1 expression in osteocytes of treated animals: decreased
  Sost expression in osteocytes of treated animals: decreased
[9]; 25 mg/kg/d, 4 weeks, tibia
  decrease in marrow fat volume vs no drug control: ~5 fold
[9]; [10]
  periosteal labeling, times larger than control: 9 fold
